Test results reported in the supplement of paper PMC11061612.

Legend:
[1] = system: Becker (Low Grade Glioma); assay: Bliss excess, mean over the matrix (fraction); higher = more synergy
Outline: (§1)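 Cell lines grown in DMEM/F12 or RPMI with 10% FBS were plated in 1536-well plates and held 24 hours at 37°C, 5% CO2 before 72 hours of exposure to two-drug dose matrices, with DMSO typically at 0.2%. CellTiter-Glo 2.0 luminescence gave viability, which was converted to inhibition. Vehicle wells were set to 0 and blank wells to 1. Combination Emax is the second-highest inhibition in the matrix, and Bliss excess is the observed combination effect minus the expected EA + EB − EA·EB, where EA and EB are the single-agent effects.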

[2] = system: CHL-1 (Melanoma); assay: as above
Outline: as §1

[3] = system: CML-T1 (Chronic Myelogenous Leukemia); assay: as above
Outline: as §1

[4] = system: COLO-684 (Endometrial Carcinoma); assay: as above
Outline: as §1

[5] = system: EB-3 (Burkitt's Lymphoma); assay: as above
Outline: as §1

[6] = system: FLO-1 (Esophageal Adenocarcinoma); assay: as above
Outline: as §1

[7] = system: HCC-44 (Lung Adenocarcinoma); assay: as above
Outline: as §1

[8] = system: KYM-1 (Rhabdomyosarcoma); assay: as above
Outline: as §1

[9] = system: KYSE-70 (Esophageal Squamous Cell Carcinoma); assay: as above
Outline: as §1

[10] = system: LAMA-84 (Chronic Myelogenous Leukemia); assay: as above
Outline: as §1

[11] = system: LOUCY (T-Lymphoblastic Leukemia); assay: as above
Outline: as §1

[12] = system: NCI-H1755 (Lung Adenocarcinoma); assay: as above
Outline: as §1

[13] = system: NCI-H810 (Non-Small Cell Lung Carcinoma); assay: as above
Outline: as §1

[14] = system: NKM-1 (Acute Myeloid Leukemia); assay: as above
Outline: as §1

[15] = system: OV-90 (Ovarian Carcinoma); assay: as above
Outline: as §1

[16] = system: PANC-02-03 (Pancreatic Carcinoma); assay: as above
Outline: as §1

[17] = system: PC-14 (Lung Adenocarcinoma); assay: as above
Outline: as §1

[18] = system: RMG-I (Ovarian Carcinoma); assay: as above
Outline: as §1

[19] = system: SK-MM-2 (Plasma Cell Myeloma); assay: as above
Outline: as §1

[20] = system: SW684 (Other Solid Carcinomas); assay: as above
Outline: as §1

[21] = system: Becker (Low Grade Glioma); assay: combination Emax (second highest fraction inhibited in the dose matrix, 72 h); higher = more inhibition; extreme values may be limits of the assay
Outline: as §1

[22] = system: CHL-1 (Melanoma); assay: as above
Outline: as §1

[23] = system: CML-T1 (Chronic Myelogenous Leukemia); assay: as above
Outline: as §1

[24] = system: COLO-684 (Endometrial Carcinoma); assay: as above
Outline: as §1

[25] = system: EB-3 (Burkitt's Lymphoma); assay: as above
Outline: as §1

[26] = system: FLO-1 (Esophageal Adenocarcinoma); assay: as above
Outline: as §1

[27] = system: HCC-44 (Lung Adenocarcinoma); assay: as above
Outline: as §1

[28] = system: KYM-1 (Rhabdomyosarcoma); assay: as above
Outline: as §1

[29] = system: KYSE-70 (Esophageal Squamous Cell Carcinoma); assay: as above
Outline: as §1

[30] = system: LAMA-84 (Chronic Myelogenous Leukemia); assay: as above
Outline: as §1

[31] = system: LOUCY (T-Lymphoblastic Leukemia); assay: as above
Outline: as §1

[32] = system: NCI-H1755 (Lung Adenocarcinoma); assay: as above
Outline: as §1

[33] = system: NCI-H810 (Non-Small Cell Lung Carcinoma); assay: as above
Outline: as §1

[34] = system: NKM-1 (Acute Myeloid Leukemia); assay: as above
Outline: as §1

[35] = system: OV-90 (Ovarian Carcinoma); assay: as above
Outline: as §1

[36] = system: PANC-02-03 (Pancreatic Carcinoma); assay: as above
Outline: as §1

[37] = system: PC-14 (Lung Adenocarcinoma); assay: as above
Outline: as §1

[38] = system: RMG-I (Ovarian Carcinoma); assay: as above
Outline: as §1

[39] = system: SK-MM-2 (Plasma Cell Myeloma); assay: as above
Outline: as §1

[40] = system: SW684 (Other Solid Carcinomas); assay: as above
Outline: as §1
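For Bliss excess, mean over the matrix in this document: after 72 h of two-drug dosing.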

SMILES	Bliss excess [1]	Bliss excess [2]	Bliss excess [3]	Bliss excess [4]	Bliss excess [5]	Bliss excess [6]	Bliss excess [7]	Bliss excess [8]	Bliss excess [9]	Bliss excess [10]	Bliss excess [11]	Bliss excess [12]	Bliss excess [13]	Bliss excess [14]	Bliss excess [15]	Bliss excess [16]	Bliss excess [17]	Bliss excess [18]	Bliss excess [19]	Bliss excess [20]	combination Emax [21]	combination Emax [22]	combination Emax [23]	combination Emax [24]	combination Emax [25]	combination Emax [26]	combination Emax [27]	combination Emax [28]	combination Emax [29]	combination Emax [30]	combination Emax [31]	combination Emax [32]	combination Emax [33]	combination Emax [34]	combination Emax [35]	combination Emax [36]	combination Emax [37]	combination Emax [38]	combination Emax [39]	combination Emax [40]
Cc1c2c(nn1C)CSCc1cc(n(C)n1)CSc1cc(c3ccccc3c1)OCCCc1c(C(=O)O)n(C)c3c-2c(Cl)ccc13 [AZD5991] + Nc1ccn([C@@H]2O[C@H](CO)[C@@H](O)C2(F)F)c(=O)n1 [Gemcitabine] (first compound max 1 µM, 7x7, partner max 0.3 µM)	-0.033	0.0685	-0.0219	-0.0376	0.0273	-0.0134	-0.0513	0.0209	-0.0423	0.0095	0.131	0.0224	0.0467	-0.0275	-0.0251	-0.053	0.0171	-0.0592	-0.0172	-0.0767	0.567	0.785	0.991	0.573	0.377	0.823	0.598	1	0.141	0.939	0.774	0.435	0.597	1	0.505	0.366	0.692	0.367	0.351	0.253
CN(CCO)CC[C@H](CSc1ccccc1)Nc1ccc(S(=O)(=O)NC(=O)c2ccc(N3CCC([C@@H](O)c4ccccc4-c4ccc(Cl)cc4)CC3)cc2)cc1S(=O)(=O)C(F)(F)F [AZD4320] + CC(=O)O[C@H]1C(=O)[C@@]2(C)[C@H]([C@H](OC(=O)c3ccccc3)[C@]3(O)C[C@H](OC(=O)[C@H](O)[C@@H](NC(=O)c4ccccc4)c4ccccc4)C(C)=C1C3(C)C)[C@]1(OC(C)=O)CO[C@@H]1C[C@@H]2O [Paclitaxel] (first compound max 1 µM, 7x7, partner max 3 µM)	0.0744	0.0578	-0.0236	0.0345	-0.0733	0.0005	-0.0294	0.017	0.0722	0.0001	0.0229	0.0211	0.237	0.0078	0.0935	0.0109	0.0125	0.133	0.0531	0.164	1	1	1	0.663	0.754	0.98	0.876	1	0.597	1	1	0.9	0.992	1	0.932	0.597	0.996	0.94	1	0.952
CS(=O)(=O)CCNCc1ccc(-c2ccc3ncnc(Nc4ccc(OCc5cccc(F)c5)c(Cl)c4)c3c2)o1 [Lapatinib] + Cn1cnc2c(F)c(Nc3ccc(Br)cc3Cl)c(C(=O)NOCCO)cc21 [Selumetinib] (first compound max 10 µM, 7x7, partner max 10 µM)	-0.0589	-0.0114	-0.0822	-0.0658	-0.0414	-0.004	0.0326	0.0148	-0.0319	0.0352	0.0378	-0.0173	-0.0554	0.0001	-0.0289	0.0604	0.0206	-0.0833	-0.0116	-0.0411	0.579	0.475	0.637	0.349	0.697	0.572	0.749	0.407	0.214	0.912	0.584	0.539	0.121	0.652	0.729	0.805	0.989	0.586	0.126	0.281
CC1(C)CCC(CN2CCN(c3ccc(C(=O)NS(=O)(=O)c4ccc(NCC5CCOCC5)c([N+](=O)[O-])c4)c(Oc4cnc5[nH]ccc5c4)c3)CC2)=C(c2ccc(Cl)cc2)C1 [Venetoclax] + CS(=O)(=O)CCNCc1ccc(-c2ccc3ncnc(Nc4ccc(OCc5cccc(F)c5)c(Cl)c4)c3c2)o1 [Lapatinib] (first compound max 1 µM, 7x7, partner max 10 µM)	-0.0179	0.0208	0.0154	-0.0236	-0.0478	-0.0279	-0.0326	-0.0027	-0.0418	-0.0046	0.0911	-0.031	-0.065	0.108	-0.0522	-0.0113	-0.013	0.0483	0.0104	-0.0757	0.147	0.528	0.539	0.343	0.568	0.318	0.226	0.291	0.145	0.182	1	0.262	0.181	0.764	0.149	0.294	0.909	0.493	1	0.112
C[C@@H](Nc1cc(F)cc(F)c1)c1cc(C(=O)N(C)C)cc2c(=O)cc(N3CCOCC3)oc12 [AZD8186] + C1CN(CCC1(C(=O)N[C@@H](CCO)C2=CC=C(C=C2)Cl)N)C3=NC=NC4=C3C=CN4 [AZD5363] (first compound max 10 µM, 7x7, partner max 10 µM)	0.0295	-0.0392	-0.0629	-0.0839	-0.0203	-0.0114	-0.0319	-0.0245	-0.0493	-0.0192	0.0819	-0.0436	-0.099	-0.0454	-0.0556	-0.0364	0.0006	-0.0317	-0.0255	-0.0408	0.646	0.433	0.53	0.615	0.324	0.43	0.609	0.4	0.233	0.198	0.494	0.642	0.17	0.615	0.208	0.237	0.399	0.401	0.202	0.572
C[C@@H]1COCCN1c1cc(C2([S@](C)(=N)=O)CC2)nc(-c2ccnc3[nH]ccc23)n1 [AZD6738] + C1CC(C1)(C(=O)[O-])C(=O)[O-].N.N.[Pt+2] [Carboplatin] (first compound max 10 µM, 7x7, partner max 10 µM)	-0.0224	-0.0178	-0.031	-0.0356	-0.0876	-0.0416	-0.0585	0.0183	-0.0571	-0.0368	0.0054	-0.0571	-0.116	-0.0102	-0.0638	-0.0433	-0.0164	-0.0502	-0.0045	-0.0968	0.648	0.798	0.976	0.756	0.751	0.619	0.288	0.904	0.266	0.92	0.972	0.807	0.458		0.345	0.433	0.807	0.337	0.319	0.342
